Measurements taken from the OPERA property sets (Mansouri et al. 2018).

Conditions: for log10 BCF / log10 biotransformation half-life (days): fish

SMILES | boiling point | melting point | also measured
O=C(O)CF | 168 °C | 35.2 °C | log10 Henry constant (atm·m³/mol): -7.91
Nc1ccccc1Oc1ccccc1 | 308 °C | 45.8 °C | –
CCC(Nc1ncnc(C)c1Cl)c1ccc(OC(F)F)cc1 (configuration not stated) | – | 47.3 °C | log10 vapour pressure (mmHg): -5.62
CCCCCCCCCCCCCCCCCCCCCCCC | 391 °C | 54 °C | log10 biodegradation half-life (days): 2.06; log10 vapour pressure (mmHg): -5.39; ready biodegradability: readily biodegradable
COC(=O)c1ccccc1S(=O)(=O)NC(=O)N(C)c1nc(C)nc(OC)n1 | – | 141 °C | log10 Henry constant (atm·m³/mol): -13; log10 Koc (L/kg): 1.72; log10 vapour pressure (mmHg): -9.41
CCCCS(=O)(=O)CCCC | 291 °C | 45 °C | –
CC(=O)CCCO | 209 °C | – | –
Oc1nc(O)nc(O)n1 | – | 360 °C | ready biodegradability: readily biodegradable; log10 BCF: -0.3
NNCCO | 219 °C | -70 °C | –
O=C(NC(=O)c1c(F)cccc1F)Nc1ccc(Cl)c(Oc2ncc(C(F)(F)F)cc2Cl)c1 | – | – | log10 vapour pressure (mmHg): -12
CCCCCCCCCCCCCCCC(=O)CC | – | 51 °C | –
COCC(C)C | 58.6 °C | – | log10 vapour pressure (mmHg): 2.32
ClCCI | 140 °C | -15.6 °C | –
CC1=CC=C(C(C)C)CC1 | 175 °C | – | –
c1ccc2sc(SSN3CCOCC3)nc2c1 | – | 135 °C | –
COC(=O)c1cc2ccccc2cc1O | – | 75.5 °C | –
O=C(O)C(O)c1ccccc1 (racemic) | – | 124 °C | –
NC1=NCC(c2ccccc2)O1 (configuration not stated) | – | 136 °C | –
C=C(C)Br | 48.4 °C | -126 °C | –
CCOC(=O)CN1CCN(C(=O)/C=C\c2cc(OC)c(OC)c(OC)c2)CC1 | – | 96 °C | –
CSc1ccc(C(=O)O)cc1 | – | 194 °C | –
CC(C)CC(C)C | 80.4 °C | -120 °C | log10 biodegradation half-life (days): 1.68; log10 vapour pressure (mmHg): 1.9
O=CC=Cc1ccco1 | – | 54 °C | –
Clc1ccc(-c2c(Cl)cc(Cl)c(Cl)c2Cl)c(Cl)c1Cl | – | – | log10 Koa: 10.2; log10 vapour pressure (mmHg): -5.85; log10 biotransformation half-life (days): 2.52
Oc1ccc2ccccc2c1Br | – | 84 °C | –

SMILES | boiling point | melting point | also measured
CCN(CC)CCCN | 168 °C | – | –
CC(=O)O[C@@H]1C[C@H](C)CC[C@H]1C(C)C (racemic) | 228 °C | – | log10 vapour pressure (mmHg): -0.983
CCCCCCCCCCCCNC(=N)N | – | 136 °C | –
CNCCCN | – | – | ready biodegradability: readily biodegradable
O=Cc1ccc(CO)o1 | – | 31.5 °C | –
CC(=O)/C=C/C1C(C)=CCCC1(C)C (configuration not stated) | – | – | log10 vapour pressure (mmHg): -1.76
Cc1cc(C)nc(NC(=O)NS(=O)(=O)c2ccccc2C(=O)O)n1 | – | – | log10 Koc (L/kg): 1.8
O=C(c1ccccc1)C(Cl)c1ccccc1 (configuration not stated) | – | 68.5 °C | –
CC(Br)(Br)CBr | 190 °C | – | –
CC(=O)C(Cl)(Cl)Cl | 149 °C | – | –
Clc1cc(Cl)c2cccc(Cl)c2c1Cl | – | – | log10 Koa: 8.41
CCCCCCCCCCC(C)=O | 246 °C | 21 °C | log10 vapour pressure (mmHg): -1.69
c1cnc2cccnc2c1 | – | 75 °C | –
CCN(CC)c1ccc2c(-c3ccccc3C(=O)O)c3ccc(N(CC)CC)cc3[o+]c2c1.[Cl-] | – | 165 °C | –
CCOP(=O)(SC(C)CC)SC(C)CC (configuration not stated) | – | – | log10 vapour pressure (mmHg): -3.05
C/C(=C(\CCOC(=O)c1ccccc1)SS/C(CCOC(=O)c1ccccc1)=C(/C)N(C=O)Cc1cnc(C)nc1N)N(C=O)Cc1cnc(C)nc1N | – | 146 °C | –
CC(Cl)C(Cl)Cl (configuration not stated) | 132 °C | – | log10 vapour pressure (mmHg): 0.491
c1ncncn1 | 114 °C | 86 °C | –
C[Si](C)(C)O[Si](C)(C)O[Si](C)(C)O[Si](C)(C)O[Si](C)(C)O[Si](C)(C)O[Si](C)(C)O[Si](C)(C)O[Si](C)(C)C | 308 °C | – | –
CC(=O)c1ccc(-c2ccccc2)cc1 | 326 °C | 121 °C | log10 Koc (L/kg): 3.22
CCOC(=O)c1nc(C(Cl)(Cl)Cl)n(-c2ccc(Cl)cc2Cl)n1 | – | 110 °C | log10 vapour pressure (mmHg): -8.18
COO | – | – | log10 Henry constant (atm·m³/mol): -5.34
CC(C)(C(=O)O)n1nc2ccccc2n1 | – | 152 °C | –
COC(=O)Nc1nc2cc(C(=O)C3CC3)ccc2[nH]1 | – | 250 °C | –
CCSc1cccc(C)c1 | 219 °C | – | –

SMILES | boiling point | melting point | also measured
Brc1ccc(Oc2ccc(Br)cc2)cc1 | 339 °C | 60.5 °C | log10 Koa: 8.64
COCCOc1ccccc1S(=O)(=O)N=C(O)N=c1nc(OC)[nH]c(OC)n1 | – | 130 °C | –
C=Cc1c(Cl)cccc1Cl | – | 89 °C | –
CC(CO)CC(F)(F)F (configuration not stated) | 132 °C | – | –
CCCCCCCCCCCC[N+](C)(C)CC(=O)[O-] | – | – | ready biodegradability: readily biodegradable
CCCCCC(=O)OCC | 167 °C | -67 °C | log10 Koc (L/kg): 2.06
CCC(C)c1ccccc1O (configuration not stated) | 228 °C | 16 °C | ready biodegradability: not readily biodegradable
C[C@@H]1C[C@H](N(C)C)[C@@H](O)[C@H](O[C@H]2[C@@H](C)C[C@@H](C)C(=O)C=C[C@@H](C)[C@@H]([C@@H](C)O)OC(=O)[C@@H]2C)O1 | – | 157 °C | –
CC=CCCC=CC | 124 °C | -76 °C | –
O=C1CCCCCCCCCCCN1 | – | 152 °C | ready biodegradability: not readily biodegradable; log10 BCF: 0.41
CCOC(=O)c1ccc(O)c(OC)c1 | 292 °C | 44 °C | –
CO[C@H](C(=O)c1ccccc1)c1ccccc1 | – | 49.5 °C | –
O=S(=O)(O)c1ccc2cc(O)ccc2c1 | – | 125 °C | –
CC(C)CCC(C)(C)C | 124 °C | -106 °C | log10 biodegradation half-life (days): 1.26; log10 vapour pressure (mmHg): 1.22
CCOP(=S)(OCC)Oc1ccc([N+](=O)[O-])cc1 | 375 °C | 6.1 °C | log10 Henry constant (atm·m³/mol): -6.53; log10 Koc (L/kg): 3.2; log10 vapour pressure (mmHg): -5.18; log10 BCF: 1.99; log10 biotransformation half-life (days): -0.41
C=C(C)c1cccc(C(=C)C)c1 | 231 °C | – | –
O=C(Cc1ccccc1)c1ccccc1 | 320 °C | 60 °C | log10 vapour pressure (mmHg): -3.74
Fc1c(F)c(F)c(Sc2c(F)c(F)c(F)c(F)c2F)c(F)c1F | – | 87 °C | –
COC(=O)c1cc(Cl)ccc1[N+](=O)[O-] | – | 48.5 °C | –
COc1ccc(C(C)=O)cc1OC | 287 °C | 51 °C | –
O=C(O)C1c2ccccc2-c2ccccc21 | – | 230 °C | –
CCC(=O)c1ccco1 | – | 28 °C | –
CN(C)C(=O)Cl | 167 °C | -33 °C | log10 vapour pressure (mmHg): 0.29
Cc1c(C(N)=O)cc([N+](=O)[O-])cc1[N+](=O)[O-] | – | 177 °C | –
CC(C)(c1cc(Br)c(OCCO)c(Br)c1)c1cc(Br)c(OCCO)c(Br)c1 | – | 107 °C | ready biodegradability: not readily biodegradable

SMILES | boiling point | melting point | also measured
OCCCCCCO | 250 °C | 45 °C | log10 vapour pressure (mmHg): -3.3
O=C(c1ccccc1)c1cccs1 | 300 °C | 56.5 °C | –
CN1CCN(CCCN2c3ccccc3Sc3ccccc32)CC1 | – | 52 °C | –
CC(C)[C@H](C)CC[C@@H](C)[C@H]1CC[C@H]2[C@@H]3CC=C4C[C@@H](O)CC[C@]4(C)[C@H]3CC[C@]12C | – | 158 °C | –
Cc1ccc(Oc2ccc([N+](=O)[O-])cc2)cc1 | – | 69 °C | –
c1ccc(-n2ccnc2)cc1 | 276 °C | 13 °C | –
O=C(O)c1cc(I)ccc1O | – | 190 °C | –
CN(C)C=O | 153 °C | -60.4 °C | log10 Henry constant (atm·m³/mol): -7.13; log10 Koa: 4.38; log10 vapour pressure (mmHg): 0.588; ready biodegradability: readily biodegradable; log10 BCF: -0.1
CCC(CC(C)C)C(C)C (configuration not stated) | 154 °C | – | –
CCc1ccc2c(c1)CCCC2 | 244 °C | -70 °C | –
O=C(O)c1cc([N+](=O)[O-])ccc1Cl | – | 166 °C | –
CCOC(=O)CC(C)=O | 181 °C | -45 °C | log10 vapour pressure (mmHg): -0.108
FCc1ccccc1 | 140 °C | -35 °C | log10 vapour pressure (mmHg): 0.832
CCCCOC | 70.1 °C | -116 °C | log10 vapour pressure (mmHg): 2.14
C=C(CC)C(=O)c1ccc(OCC(=O)O)c(Cl)c1Cl | – | 122 °C | –
COC(=O)C(C)O (configuration not stated) | 145 °C | -66 °C | –
OCCC1CCCCC1 | 208 °C | -20 °C | log10 vapour pressure (mmHg): -0.78
c1ccc2c(c1)ccc1nc3c(ccc4ccccc43)cc12 | – | 226 °C | log10 BCF: 2.03; log10 biotransformation half-life (days): -0.14
CCCc1cccc(CCC)c1O | 256 °C | 27 °C | –
COc1ccc(Cl)c(Cl)c1Cl | – | 69.5 °C | log10 BCF: 2.96; log10 biotransformation half-life (days): 1.4
CCOC(=O)C1CCC1 | 159 °C | – | –
Cc1ccc(C(=O)O)c([N+](=O)[O-])c1O | – | 186 °C | –
CCOP(=S)(NC(C)CC)Oc1cc(C)ccc1[N+](=O)[O-] (configuration not stated) | – | – | log10 BCF: 2.46; log10 biotransformation half-life (days): -0.2
CC(C)(O)C(C)(C)O | – | 43 °C | –
O=C(O)CNC(=O)OCc1ccccc1 | – | 121 °C | –

SMILES | boiling point | melting point | also measured
CCS(=O)(=O)O | – | -17 °C | –
C=CCOC(=O)CCC | 142 °C | -80 °C | –
ClC=CCl | 55 °C | -57 °C | log10 Henry constant (atm·m³/mol): -2.39; log10 vapour pressure (mmHg): 2.3; ready biodegradability: not readily biodegradable
Cc1cc(C)c(N)cc1C | 234 °C | 68 °C | log10 Henry constant (atm·m³/mol): -5.61; log10 vapour pressure (mmHg): -2.05
CC1(O)CCCC1 | 136 °C | 36 °C | –
Clc1ccc(Br)s1 | – | -20 °C | –
CCOC(=O)CC(SP(=S)(OC)OC)C(=O)OCC (configuration not stated) | – | 2.8 °C | log10 Henry constant (atm·m³/mol): -8.31; log10 Koc (L/kg): 2.36; log10 vapour pressure (mmHg): -5.47; ready biodegradability: not readily biodegradable; log10 BCF: 1.52; log10 biotransformation half-life (days): 0.29
Oc1ccc(NCc2ccccc2)cc1 | – | 88 °C | –
Brc1ccc2oc3ccccc3c2c1 | – | 110 °C | –
COc1cc(CCN)cc(OC)c1OC | – | 35.5 °C | –
OB(O)c1ccccc1 | – | 219 °C | –
CCC(C)C=O (configuration not stated) | – | 91 °C | –
Clc1ccc(Cl)c(Oc2ccccc2)c1 | – | – | log10 vapour pressure (mmHg): -3
COc1ccc(C)cc1C | 192 °C | – | –
O=NN(CCCl)C(=O)NC1CCCCC1 | – | 89 °C | –
C=CC#CCCC | 110 °C | – | –
CCCOC(=O)c1ccccc1O | 239 °C | 97 °C | –
N#Cc1ccccc1CCl | 252 °C | 61 °C | –
C[Si](C)(C)O[Si](C)(C)O[Si](C)(C)O[Si](C)(C)O[Si](C)(C)O[Si](C)(C)C | 246 °C | -59 °C | log10 vapour pressure (mmHg): -1.53
O=C(O)c1cc(Br)cc(Br)c1O | – | 228 °C | –
O=[N+]([O-])c1cncn1CCN1CCOCC1 | – | 110 °C | –
